According to patent US5190975A, “Indan derivatives used for treating thromboses or asthma” (Tanabe Seiyaku Co., Ltd., priority 1987, dated 1993):

Legend:
[1] = system: arachidonic acid-induced pulmonary embolism; test: Inhibiting effect on arachidonic acid-induced pulmonary embolism (in vivo); set-up: species or system ddy-male mice; conditions: Mus musculus; dose required to shorten the recovery time by at least 15% as compared with the control group; oral, 3 hours before arachidonic acid 125 mg/kg, mice
Procedure: Inhibiting effect on arachidonic acid-induced pulmonary embolism (in vivo):
A test compound in an aqueous carboxymethylcellulose solution (20 ml/kg) was orally administered to ddy-male mice fasted overnight. Three hours later, arachidonic acid (125 mg/kg) was injected to the tail vein of mice to induce pulmonary embolism, and the recovery time (minute) of locomotive activity of the mice was compared with that of a control group of mice to which a 0.25% aqueous CMC solution was administered instead of the test compound solution. The inhibiting effect of each test compound on arachidonic acid-induced pulmonary embolism was estimated in terms of the dose required to shorten the recovery time by at least 15% as compared with the control group.

TxA2 = conditions: Thrombosis Research, 35, 379-395, 1984; cited from earlier work

SMILES | ED15 [1] [mg/kg] | TxA2-antagonistic activity (TxA2)
O=C(O)CCCNC(=O)Cc1ccc2c(c1)CC(NS(=O)(=O)c1ccc(Cl)cc1)C2 (stereo not shown) [Example 2] | 0.03 | 
O=C(O)CCNC(=O)Cc1ccc2c(c1)CC(NS(=O)(=O)c1ccc(Cl)cc1)C2 (stereo not shown) [Example 1] | 0.03 | 
O=C(O)COc1ccc(CCNS(=O)(=O)c2ccccc2)cc1 [Control, 4-(2-Benzensulfonylaminoethyl)phenoxyacetic acid] | 30 | has TxA2 -antagonistic activity
